From US20200216496A1, “Antibacterial Compounds Produced by the Microorganism Strain Corallococcus Coralloides ST201330 (DSM 24989)” (Sanofi, priority 2017, published 2020)
*1 amine or outer side, *2 acyl side, *3 side chain or, on linkers, in order; H or OH if unused. Where a SMILES comes first, the peptide text is derived from it. [ ]: non-standard residue; d: D form. The star is where a group is joined. ξ: configuration not given here. X2 = Cn1cncc1C(O)C(N[*:1])C(=O)[*:2]; X3 = COC(CN[*:1])C(O)C(O)C(=O)[*:2]; ξVal(3-OH) = CC(C)(O)C(N)C(=O)O; NMeF = CN[CH](Cc1ccccc1)C(=O)O; X4 = O=C(C(O)N[*:1])[*:2]; X1 = CC(O)C(O)C(=O)*

Assays:
[1] = system: E. coli strain ATCC35218; assay type: cell-based, Escherichia coli
Method: The present in vitro test identifies molecules having antimicrobial activity on the microorganisms by quantification of the culture optical density. Optical density compared to a vial with the same medium non inoculated by bacteria is an indicator of the bacterial growth. Minimal inhibitory concentrations were evaluated following the CLSI and EUCAST guidelines. Bacterial inoculum were prepared by overnight culture in cation-adjusted Mueller-Hinton II (MHII) medium from colonies isolated from colonies on agar plates, then diluted to evaluate the colony forming units (cfu) using the McFarland turbidity standard. A 96 well plate was inoculated with 100 μl of 5.105 cfu/ml in MHII, and test compounds prepared by serial dilution at 100× concentration in DMSO. After a 20-22 h incubation, optical density was evaluated on a microplate reader and the MIC endpoint was determined as the lowest concentration of antibiotic at which there is no visible growth in duplicates, meaning that optical density differs no more from negative controls than 10% of the difference in optical density between negative controls (medium, no bacteria) and positive control (bacteria in medium, no antibiotics).

[2] = system: Escherichia coli ATCC 35218; assay: Antibacterial activity against Escherichia coli: inhibitory activity (IC80), broth microdilution, absorbance at 590 nm; assay type: cell-based; conditions: Mueller Hinton broth, 37° C., 20 hours, growth inhibited by 80%
Method: A stock solution of 1000 μg/ml of the test compound was prepared in methanol. The test strain (Escherichia coli ATCC 35218) was stored at −80° C. The inoculum was prepared from a fresh liquid preculture. The preculture was prepared from a bead of the material stored at −80° C. and 30 ml of nutrient medium (Mueller Hinton broth, Difco) and incubated at 37° C. and 180 rpm for 18 hours. The inoculum was adjusted to an optical density (OD) of 0.2 at a wavelength of 600 nm. For this, the inoculum was adjusted to a value of 10^8 CFU/ml (CFU: colony forming units). After the adjustment of the inoculum, the suspension was diluted with nutrient solution (Mueller Hinton broth, Difco) in a ratio of 1:10000. The microtiter plate was inoculated within 15 min of preparation of the inoculum. The exact colony count was determined by means of surface culture. Using the stock solution of the test compound and the nutrient medium (Mueller Hinton broth, Difco), a dilution series was prepared beforehand on the microtiter plate. […] The microtiter plates were read with the aid of a photometer at a wavelength of 590 nm by measurement of the absorption. IC80 values were subsequently calculated from the values of the dilution series according to a standard process as the concentration of the test compound which is necessary in order to inhibit the growth of the test organism Escherichia coli by 80%.

Absorbance MIC [1] | SMILES | IC80 for inhibition of Escherichia coli ATCC 35218 [2]
1 to 4 µg/mL | COC(CNC(=O)C(NC(=O)C(O)C(C)O)C(O)c1cncn1C)C(O)C(O)C(=O)N(C)C(Cc1ccccc1)C(=O)NCC(=O)NC(C(=O)NC(CO)C(=O)NC(C(=O)NC(CC(C)C)C(=O)NC(CO)C(=O)O)C(C)(C)O)C(C)(C)O (stereo not drawn) [formula Ia] (X1-[X2][X3][NMeF]G[ξVal(3-OH)]S[ξVal(3-OH)]LS-OH; configuration not given here) | –
8 µg/mL | COC(CNC(=O)C(NC(=O)C(O)C(C)O)C(O)c1cncn1C)C(O)C(O)C(=O)N(C)C(Cc1ccccc1)C(=O)NC(O)C(=O)NC(C(=O)NC(CO)C(=O)NC(C(=O)NC(CC(C)C)C(=O)NC(CO)C(=O)O)C(C)(C)O)C(C)(C)O (stereo not drawn) [formula Ib] (X1-[X2][X3][NMeF][X4][ξVal(3-OH)]S[ξVal(3-OH)]LS-OH; configuration not given here) | 0.71 µg/mL
